# According to ChEMBL document CHEMBL1159166, “Chemoselective thioacylation of amino acids. Preparation of the four monothiothymopentin analogs and their biological activity” (1993):
# Where a SMILES comes first, the peptide text is derived from it.
# Species on record: Bos taurus
# Assay: Electromyographic activity is measured as mean of the ratio of the height of the muscle action potential generated by the tenth impulse to the initial impulse in bovine thymus extracts at 10 mg
# Assay type: functional, Muscle tissue
row,Compound,Mean
1,CC(C)[C@H](NC(=O)[C@H](CC(=O)O)NC(=O)[C@H](CCCCN)/N=C(\S)[C@@H](N)CCCN=C(N)N)C(=O)N[C@@H](Cc1ccc(O)cc1)C(=O)O,0.85
2,CC(C)[C@H](/N=C(\S)[C@H](CC(=O)O)NC(=O)[C@H](CCCCN)NC(=O)[C@@H](N)CCCN=C(N)N)C(=O)N[C@@H](Cc1ccc(O)cc1)C(=O)O,0.89
3,CC(C)[C@H](NC(=O)[C@H](CC(=O)O)NC(=O)[C@H](CCCCN)NC(=O)[C@@H](N)CCCN=C(N)N)/C(S)=N/[C@@H](Cc1ccc(O)cc1)C(=O)O,0.84
4,CC(C)[C@H](NC(=O)[C@H](CC(=O)O)/N=C(\S)[C@H](CCCCN)NC(=O)[C@@H](N)CCCN=C(N)N)C(=O)N[C@@H](Cc1ccc(O)cc1)C(=O)O,0.83
5,CC(C)[C@H](NC(=O)[C@H](CC(=O)O)NC(=O)[C@H](CCCCN)NC(=O)[C@@H](N)CCCN=C(N)N)C(=O)N[C@@H](Cc1ccc(O)cc1)C(=O)O [THYMOPENTIN] (H-RKDVY-OH),0.83
